Measured values: article PMC11752523, “Effect of Chirality and Amphiphilicity on the Antimicrobial Activity of Tripodal Lysine-Based Peptides” (ACS Applied Bio Materials, 2025)
≈ marks a conversion by molar mass, not a printed value. Entries after “also recorded” stand apart in the source; their conditions may differ. Where two headings read alike, the source gives them in different places. Numbered stars: 1 amine (or outer) side, 2 acyl side, 3 side chain; on linkers, the order of the positions; unused ones are H or OH. Bridge positions count the residues as written; N and C are the ends. Square brackets hold non-standard residues; d marks the D form. Side chains are listed from the residue outwards. Peptide text beside a SMILES is read from it. * marks the point of attachment. d(εLys) = N[C@H](CCCCN[*:1])C(=O)[*:2]; εLys = N[C@@H](CCCCN[*:1])C(=O)[*:2]; Fmoc = O=C(OCC1c2ccccc2-c2ccccc21)*; X1 = CC[C@H](C)CCCCC(=O)*; Dab = NCC[C@H](N)C(=O)O

Assays:
[1] = Cryo-TEM imaging of self-assembled nanostructure; type: physicochemical; conditions: 1 wt % aqueous solutions, above CAC
Description: Imaging was carried out as described previously.[35],[75]
To examine the morphology of the self-assembled nanostructure of these three arm trifunctional peptides, cryo-TEM imaging was performed for 1 wt % solutions, above the measured CAC values. […] In many cases, these structures are deposited on the lacey carbon grid in preference to, or in addition to, the vitrified grid holes.

[2] = tested on: Salmonella enterica serovar Typhimurium; conditions: 24 h
[3] = tested on: L929 murine fibroblast cells; test: MTT cell viability (cytocompatibility) assay; type: cell-based; conditions: L929 murine fibroblasts, after 48 h, n = 3
Description: L929 murine fibroblast cells (ECACC General Cell Collection) were grown in Dulbecco’s modified Eagle’s medium (DMEM) supplemented with 10% fetal bovine serum (FBS), 20 mM HEPES, and 1% GlutaMAX. The cells were maintained at pH 7.4, 37 °C, and 5% CO2 in 25 cm^2 cell culture flasks.
Assays were conducted as described previously.[23]
To be of utility as practical antimicrobials, bioactive molecules must show selective activity compared to their toxicity toward mammalian cells. The cytocompatibility of our peptides was investigated by a cell metabolic activity assay using MTT [3-(4,5-dimethylthiazol-2-yl)-2,5-diphenyltetrazolium bromide] assays using L929 murine fibroblast cell lines.
Figure 6 Cell viability data (with L929 murine fibroblasts) of tripodal peptides: (a) TP, (b) DTP, (c) FTP, and (d) FDTP. The error bar corresponds to the standard deviation of the value from the mean (n = 3, *p < 0.05, **p < 0.01 by performing the Anova statistical test).

[4] = tested on: human red blood cells (hRBCs); conditions: 0.5% (v/v) hRBCs in PBS, peptide 0–0.1 wt %, 1 h, hemoglobin at 414 nm, normalised to 0.1% Triton X-100; mean of three independent experiments
[5] = tested on: Pseudomonas aeruginosa (NCTC 13437), clinical multidrug-resistant isolate
[6] = Critical aggregation concentration by ANS fluorescence probe assay; type: physicochemical; conditions: emission 486 nm, breakpoint of I/I0 vs log(c/wt %), aqueous solution in ultrapure water, pH 6.5
Description: Fluorescence experiments were carried out as described previously.[35]
To determine the CAC value of individual peptides, the results were plotted as I/I0 versus log(c/wt %), where I indicates the maximum fluorescence intensity of ANS at a given sample concentration and I0 denotes the peak intensity for the ANS solution without peptide.
Critical aggregation concentration (CAC) values of the tripodal peptides were obtained from fluorescence probe assays using 8-anilo-1-naphthalenesulfonic acid (ANS).

[7] = tested on: E. coli O157:H7 strain EDL933
S. aureus (ATCC 12600) = conditions: ATCC 12600, 24 h
Klebsiella aerogenes = conditions: 24 h
[8] = tested on: E. coli EDL933 bacterial membrane; test: Bacteria live/dead (DMAO/EthD-III) staining, fluorescence microscopy; type: cell-based, Escherichia coli; conditions: E. coli EDL933 treated at MBC for 1 h at 37 °C; DMAO green / EthD-III red
Description: Dual staining of peptide-treated bacteria, to detect potential membrane disruption,[80] was performed using a bacteria live/dead staining kit (PromoKine). This process involves incubating samples with fluorescent, nucleic acid dyes (DMAO, green, and EthD-III, red) that, respectively, are either able or unable to cross the bacterial membrane. […] Next, they were incubated with set volumes of both dyes for 15 min at room temperature. Slides were mounted using 5 μL of the stained solution onto glass coverslips and observed under a Nikon Eclipse Ti inverted microscope using a 10× objective. Images of different treatments, including controls were captured and compared.
Figure 8 DMAO/EtD-III stained images showing the peptide effects on the integrity of the bacterial membrane. Fluorescence microscopy was used to visualize DMAO and EtD-III dyes binding to the bacterial DNA. In this experiment, E. coli EDL933 was incubated with peptides at their minimum bactericidal concentration (MBC) for 1 h at 37 °C, followed by staining with a bacteria live/dead staining kit (PromoKine). Cells with disrupted membranes are stained red (EtD-III), while cells with intact membranes are stained green (DMAO).

E. coli EDL933 = test: SEM imaging of peptide-treated bacteria; type: cell-based, Escherichia coli; conditions: E. coli EDL933, peptide at MBC (31.25 μg/mL), 1 h at 37 °C
[9] = P. aeruginosa NCTC13437, 24 h incubation, 5 × 10^6 CFU/mL, absorbance 600 nm, mean of three independent experiments
[10] = P. aeruginosa NCTC13437, 24 h incubation, aliquots plated on MHA, no viable colonies
[11] = E. coli O157:H7 EDL933, 24 h incubation, 5 × 10^6 CFU/mL, absorbance 600 nm, mean of three independent experiments
[12] = E. coli O157:H7 EDL933, 24 h incubation, aliquots plated on MHA, no viable colonies

Row | SMILES | Morphology of self-assembled nanostructure (cryo-TEM) [1] | MBC [2] [µg/mL] | MIC [2] [µg/mL] | Cell viability / cytotoxicity (MTT) [3] | Hemolysis of hRBCs [4] | MIC [5, 9] [µg/mL] | MBC [5, 10] [µg/mL] | Critical aggregation concentration (CAC) [6] [wt %] | MIC [7, 11] [µg/mL] | MBC [7, 12] [µg/mL] | MBC (S. aureus (ATCC 12600)) [µg/mL] | MIC (S. aureus (ATCC 12600)) [µg/mL] | MBC (Klebsiella aerogenes) [µg/mL] | MIC (Klebsiella aerogenes) [µg/mL] | Effect on integrity of the bacterial membrane (live/dead staining) [8] | further results
1 | NCCCC[C@@H](N)C(=O)N[C@H](CCCCN)C(=O)N[C@@H](Cc1ccc(O)cc1)C(=O)NCCCC[C@H](NC(=O)[C@H](Cc1ccc(O)cc1)NC(=O)[C@@H](CCCCN)NC(=O)[C@H](N)CCCCN)C(=O)N[C@@H](Cc1ccc(O)cc1)C(=O)N[C@H](CCCCN)C(=O)N[C@H](CCCCN)C(N)=O [DTP, (kkY)3K] (H-[dK][dK]YK([Tyr-dK-dK])Y[dK][dK]-NH2) | irregular globular aggregates | > 1000 | > 1000 | nor do they or reduce the viability of fibroblasts | did not lyse hRBCs | > 1000 | > 1000 | 0.0069 ± 0.002 | 500 (≈ 356 µM) | 1000 (≈ 712 µM) | > 1000 | > 1000 | – | – | – | –
2 | NCCCC[C@H](NC(=O)[C@H](CCCCN)NC(=O)[C@H](Cc1ccc(O)cc1)NC(=O)[C@H](CCCCNC(=O)[C@H](Cc1ccc(O)cc1)NC(=O)[C@H](CCCCN)NC(=O)[C@@H](N)CCCCN)NC(=O)[C@H](Cc1ccc(O)cc1)NC(=O)[C@H](CCCCN)NC(=O)[C@@H](N)CCCCN)C(N)=O [TP, (KKY)3K] (H-KKYK([Tyr-Lys-Lys])YKK-NH2) | irregular globular aggregates | – | – | nor do they or reduce the viability of fibroblasts | did not lyse hRBCs | – | – | 0.0065 ± 0.004 | > 1000 | > 1000 | – | – | – | – | – | –
3 | CC[C@H](C)CCCCC(=O)N[C@@H](CCN)C(=O)N[C@H](C(=O)N[C@@H](CCN)C(=O)N[C@H]1CCNC(=O)[C@H]([C@@H](C)O)NC(=O)[C@H](CCN)NC(=O)[C@H](CCN)NC(=O)[C@H](CC(C)C)NC(=O)[C@@H](Cc2ccccc2)NC(=O)[C@H](CCN)NC1=O)[C@@H](C)O [polymyxin B, reference compound] (X1-[Dab]T[Dab][Dab][Dab][dF]L[Dab][Dab]T; lactam 4-C (inferred); N-terminus assumed) | – | 12.5 (≈ 10.4 µM) | 6.25 (≈ 5.19 µM) | – | – | – | – | – | – | – | > 100 | > 100 | 6.25 (≈ 5.19 µM) | 3.12 (≈ 2.59 µM) | – | MBC ([5]; NCTC 13437, 24 h): 25 µg/mL (≈ 20.8 µM); MIC ([5]; NCTC 13437, 24 h): 6.25 µg/mL (≈ 5.19 µM); MBC ([7]; O157:H7, 24 h): 6.25 µg/mL (≈ 5.19 µM); MIC ([7]; O157:H7, 24 h): 3.12 µg/mL (≈ 2.59 µM)
4 | NCCCC[C@@H](NC(=O)[C@@H](CCCCN)NC(=O)[C@H](Cc1ccc(O)cc1)NC(=O)[C@H](CCCCNC(=O)[C@H](Cc1ccc(O)cc1)NC(=O)[C@@H](CCCCN)NC(=O)[C@H](N)CCCCNC(=O)OCC1c2ccccc2-c2ccccc21)NC(=O)[C@H](Cc1ccc(O)cc1)NC(=O)[C@@H](CCCCN)NC(=O)[C@H](N)CCCCNC(=O)OCC1c2ccccc2-c2ccccc21)C(N)=O [FDTP, Fmoc-(kkY)3K] (H-[dK](Fmoc)[dK]YK([Tyr-dK-d(εLys)-Fmoc])Y[dK][dK]-NH2) | irregular globular aggregates | 500 (≈ 271 µM) | 250 (≈ 135 µM) | death of fibroblasts; also recorded: cytotoxicity at the two highest concentrations studied | greater leakage of hRBCs | 125 (≈ 67.6 µM) | 250 (≈ 135 µM) | 0.0123 ± 0.003 | 15.62 (≈ 8.45 µM) | 31.25 (≈ 16.9 µM) | 62.5 (≈ 33.8 µM) | 31.2 (≈ 16.9 µM) | 62.5 (≈ 33.8 µM) | 62.5 (≈ 33.8 µM) | rapid, membrane-targeting effects | Bacterial surface morphology by SEM (E. coli EDL933): Significant disruption of the surface of the bacteria; Bacterial surface morphology by SEM (E. coli EDL933; listed as FTDP): collapsed shapes
5 | NCCCC[C@H](NC(=O)[C@H](CCCCN)NC(=O)[C@H](Cc1ccc(O)cc1)NC(=O)[C@H](CCCCNC(=O)[C@H](Cc1ccc(O)cc1)NC(=O)[C@H](CCCCN)NC(=O)[C@@H](N)CCCCNC(=O)OCC1c2ccccc2-c2ccccc21)NC(=O)[C@H](Cc1ccc(O)cc1)NC(=O)[C@H](CCCCN)NC(=O)[C@@H](N)CCCCNC(=O)OCC1c2ccccc2-c2ccccc21)C(N)=O [FTP, Fmoc-(KKY)3K] (H-K(Fmoc)KYK([Tyr-Lys-εLys-Fmoc])YKK-NH2) | sheet-like structures | 500 (≈ 271 µM) | 250 (≈ 135 µM) | – | – | 125 (≈ 67.6 µM) | 250 (≈ 135 µM) | 0.0113 ± 0.005 | 62.5 (≈ 33.8 µM) | 125 (≈ 67.6 µM) | 250 (≈ 135 µM) | 125 (≈ 67.6 µM) | 62.5 (≈ 33.8 µM) | 62.5 (≈ 33.8 µM) | rapid, membrane-targeting effects | –
